Key:
[1] = test system: HEK293 cells overexpressing ErbB1, ErbB2, CFP-tagged C99, and YFP-tagged NΔE; test: Lysosome inhibitor rescue after ErbB2 knockdown, Western blotting of HEK293 cells co-expressing ErbB1, ErbB2, CFP-C99, YFP-NΔE; assay type: cell-based; settings: 10 μM chloroquine or 10 mM ammonium chloride, 37° C., 24 h after 48 h shRNA infection
Description: Clarified lysates containing equivalent amounts of proteins were analyzed by Western blotting. (B, C) HEK293 overexpressing CFP-LC3 cells were infected with lentivirus encoding shRNA targeting LacZ ErbB2, or ErbB2 plus ATG5 for 48 h. The autophagy induction was analyzed by fluorescence confocal microscopy. The number of CFP-LC3 puncta per cell was quantified. The levels of LC3-I, LC3-II, and GAPDH were analyzed by Western blotting. (D, E) HEK293 cells overexpressing ErbB1, ErbB2, CFP-tagged C99, and YFP-tagged NΔE were infected with lentivirus encoding shRNA targeting LacZ (Ctrl), ErbB1, or ErbB2 for 48 h. […] The levels of LC3-1, LC3-II, and p62 were analyzed by Western blotting and quantified by NIH Image J. Conditional media were harvested and processed for determination of secreted Aβ40 using a colourimetric Aβ40-specific ELISA kit. […] The quantitative data are shown as mean±SD from three independent experiments, and were analyzed by Student's t-tests. * p<0.05.
Preparation of cell extracts. […] Following the removal of cell debris by centrifugation, clarified lysates were processed for immunoprecipitation, Western blotting, or quantification of BCA protein content.
Western blotting analysis. Protein concentration was measured with the BCA Protein Assay Kit (Pierce). […]

[2] = test system: zebrafish embryos expressing GFP-tagged C99; test: Phenotype of C99-expressing zebrafish embryos (curved trunk, Notch-dependent somite development); assay type: in vivo; settings: zebrafish, in vivo
[3] = test system: γ-secretase-mediated proteolysis of NΔE (NG cells); test: Cell-based NΔE-specific γ-secretase assay (NG cells, Gal4 luciferase reporter); settings: dose-dependent manner
Description: (§1) (A) Adherent CG and NG cells (20,000 cells/well) were treated with 1 μM of the indicated ErbB1/2-selective tyrosine kinase inhibitors in the presence of 1 μg/ml tetracycline at 37° C. for 24 h. The luminescence signals emitted by cells treated with vehicle alone (Ctrl, 0.1% DMSO) were referred to as 100% relative luminescence signals. The luminescence signals generated by γ-secretase-mediated proteolysis of C99 (CG) or NΔE (NG) were determined using the Steady-Glo luciferase assay reagent. (B) HEK293 overexpressing C99-YFP cells were treated with 1 μM of the indicated ErbB1/2 tyrosine kinase inhibitors at 37° C. for 24 h. Clarified lysates were analyzed by Western blotting and quantified by Image J. (C) HEK293 overexpressing ErbB1 ErbB2, CFP-tagged C99, and YFP-tagged NΔE cells were infected with gene-targeting shRNA-encoding lentivirus (shErbB1 or shErbB2) at 37° C. for 48 h. Clarified lysates containing equivalent amounts of proteins were examined by Western blotting and quantified by Image J. (D) CG and NG cells were infected with gene-targeting shRNA-encoding lentivirus at 37° C. for 48 h. Following induction with 1 μg/ml tetracycline for 24 h. […] Data are shown as the mean±SD from three independent experiments, and were analyzed by Student's t-tests. * p<0.05. […]

[4] = test system: γ-secretase-mediated proteolysis of C99 (CG cells); test: Cell-based C99-specific γ-secretase assay (CG cells, Gal4 luciferase reporter); settings: dose-dependent manner
Description: as §1

[5] = test system: γ-secretase cleavage of CFP-C99 and YFP-NΔE in HEK293 (CCNY) cells; test: Cell-based C99-NΔE dual γ-secretase assay (CCNY cells); settings: CCNY cell line
Description: To generate a cellular γ-secretase assay that could be used to simultaneously identify cleavage of C99 and NΔE and the production of AICD and NICD, we […] HEK293 cells with pAS2-CCNY and selected transfectants with DMEM medium containing 10% FBS and 250 μg/ml zeocin. […] The CCNY clone was selected and optimized for the cell-based C99-NΔE dual γ-secretase assay.

Row | SMILES | rescue of the reduction in C99 and AICD elicited by ErbB2 knockdown [1] | embryo phenotype (trunk, tail, pigmentation; developmental defects) [2] | γ-secretase-dependent luciferase signals in NG cells [3] | γ-secretase-dependent luciferase signals in CG cells [4] | cleavage of CFP-C99 and YFP-NΔE [5]
1 | Cl.N [ammonium chloride] | rescued |  |  |  | 
2 | CCN(CC)CCCC(C)Nc1ccnc2cc(Cl)ccc12 (stereo not drawn) [chloroquine] | rescued |  |  |  | 
3 | C[C@H](NC(=O)Cc1cc(F)cc(F)c1)C(=O)N[C@H](C(=O)OC(C)(C)C)c1ccccc1 [DAPT, N—[N-(3,5-difluorophenacetyl-L-alanyl)]-S-phenylglycine t-butyl ester] |  | severe developmental defects | decreased γ-secretase-dependent luciferase signals | decreased γ-secretase-dependent luciferase signals | completely suppressed

Source: US10576082B2, “ErbB2 regulates autophagic flux to modulate the proteostasis of APP-CTFs in alzheimer's disease” (Academia Sinica, priority 2016, dated 2020)
